From ChEMBL document CHEMBL4251628, “Novel click modifiable thioquinazolinones as anti-inflammatory agents: Design, synthesis, biological evaluation and docking study” (Eur J Med Chem, 2018)

Experiments:
[1] = molecular target: T1, Serine/threonine-protein kinase Chk1 (Homo sapiens, UniProt O14757); assay: Inhibition of CHK1 (unknown origin)
T1 sequence (O14757 whole entry): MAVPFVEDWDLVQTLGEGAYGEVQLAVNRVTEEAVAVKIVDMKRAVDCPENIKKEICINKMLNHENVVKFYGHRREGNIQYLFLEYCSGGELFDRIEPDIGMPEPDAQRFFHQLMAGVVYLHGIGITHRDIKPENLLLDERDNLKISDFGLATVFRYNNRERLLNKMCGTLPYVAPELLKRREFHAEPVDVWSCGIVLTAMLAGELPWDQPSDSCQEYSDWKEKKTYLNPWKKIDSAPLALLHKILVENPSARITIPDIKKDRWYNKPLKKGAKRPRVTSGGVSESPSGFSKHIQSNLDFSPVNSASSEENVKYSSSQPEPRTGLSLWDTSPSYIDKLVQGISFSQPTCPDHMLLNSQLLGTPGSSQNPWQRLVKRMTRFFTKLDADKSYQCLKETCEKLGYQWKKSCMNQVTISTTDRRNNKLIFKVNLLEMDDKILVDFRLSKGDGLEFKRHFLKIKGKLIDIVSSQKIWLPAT

[2] = molecular target: T2, Prostaglandin G/H synthase 1 (Ovis aries, UniProt P05979); assay: Inhibition of ovine COX1 assessed as reduction in PGF2alpha production using arachidonic acid as substrate by colorimetric method
T2 sequence (P05979 whole entry): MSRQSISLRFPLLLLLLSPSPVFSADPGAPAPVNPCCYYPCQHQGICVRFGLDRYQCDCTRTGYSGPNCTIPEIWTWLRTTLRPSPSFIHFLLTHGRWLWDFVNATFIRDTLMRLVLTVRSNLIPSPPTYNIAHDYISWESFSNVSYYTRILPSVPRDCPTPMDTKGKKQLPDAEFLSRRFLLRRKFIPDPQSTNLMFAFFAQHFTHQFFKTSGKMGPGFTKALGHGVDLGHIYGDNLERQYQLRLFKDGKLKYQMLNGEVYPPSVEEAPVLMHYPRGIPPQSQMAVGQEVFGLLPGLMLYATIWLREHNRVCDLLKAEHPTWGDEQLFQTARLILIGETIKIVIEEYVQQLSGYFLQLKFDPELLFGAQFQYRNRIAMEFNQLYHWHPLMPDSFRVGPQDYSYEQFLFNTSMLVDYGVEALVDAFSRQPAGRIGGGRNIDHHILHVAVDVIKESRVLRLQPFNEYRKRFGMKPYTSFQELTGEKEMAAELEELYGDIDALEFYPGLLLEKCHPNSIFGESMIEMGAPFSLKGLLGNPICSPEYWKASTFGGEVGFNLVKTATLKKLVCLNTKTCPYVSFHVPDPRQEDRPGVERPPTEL

Rattus norvegicus [3] = assay: Anti-inflammatory activity in rat acute inflammation model assessed as inhibition of formalin-induced paw edema at 5 mg/kg, po measured after 4 hrs relative to celecoxib; type: functional
Rattus norvegicus [4] = assay: Anti-inflammatory activity in rat acute inflammation model assessed as inhibition of formalin-induced paw edema at 5 mg/kg, po measured after 4 hrs relative to negative control
Rattus norvegicus [5] = assay: Anti-inflammatory activity in rat acute inflammation model assessed as inhibition of formalin-induced paw edema at 5 mg/kg, po measured after 4 hrs relative to control; type: functional
THP-1 [6] = assay: Cytotoxicity against human THP1 cells assessed as reduction in cell viability after 30 hrs by MTS assay; type: cell-based; conditions: thp-1, 30 h
[7] = Inhibition of soybean 15-LOX using linoleic acid as substrate by colorimetric method; design: species or system Glycine max
THP-1 [8] = assay: Inhibition of PMA-induced human THP1 monocytes differentiation in to macrophages preincubated for 6 hrs followed by PMA stimulation by phase contrast microscopic method; type: functional, cell-based
Rattus norvegicus [9] = assay: Ulcerogenicity in Wistar rat assessed as lymphocytic infilteration in gastric mucosa po after 6 hrs by H and E staining based light microscopic method; conditions: in vivo
Rattus norvegicus [10] = assay: Ulcerogenicity in Wistar rat assessed as hyperemia in gastric mucosa at 60 mg/kg, po after 6 hrs; type: toxicity, organism-based; conditions: in vivo
Rattus norvegicus [11] = assay: Ulcerogenicity in Wistar rat assessed as effect on gastro-esophageal junction at 60 mg/kg, po after 6 hrs by H and E staining based light microscopic method; type: toxicity, organism-based; conditions: in vivo
Rattus norvegicus [12] = assay: Ulcerogenicity in Wistar rat assessed as maceration of gastric mucosa at 60 mg/kg, po after 6 hrs by H and E staining based light microscopic method; type: toxicity, organism-based; conditions: in vivo
Rattus norvegicus [13] = assay: Ulcerogenicity in Wistar rat assessed as necrosis of gastric mucosa at 60 mg/kg, po after 6 hrs by H and E staining based light microscopic method; type: toxicity, organism-based; conditions: in vivo
Rattus norvegicus [14] = assay: Ulcerogenicity in Wistar rat assessed as congested blood vessels in gastric mucosa esophagus at 60 mg/kg, po after 6 hrs by H and E staining based light microscopic method; type: toxicity, organism-based; conditions: in vivo

CCCC[C@@H](Sc1nc2ccccc2c(=O)n1-c1cccc(C)c1)C(=O)N1CCC[C@]2(CCCNC2)C1
IC50 [1]: 1.3 µM

COc1ccc(-c2cc(CSc3nc4ccccc4c(=O)n3-c3ccc(Cl)cc3)on2)cc1OC
IC50 [2]: 10.2 µM

COc1ccc(-c2cc(CSc3nc4ccccc4c(=O)n3-c3ccc(OC)cc3)on2)cc1
IC50 [2]: 6.23 µM

O=c1c2ccccc2nc(SCc2cn(-c3ccccc3)nn2)n1-c1ccccc1
IC50 [2]: 7.33 µM

COc1ccc(-n2c(SCc3cc(-c4ccc(Cl)cc4)no3)nc3ccccc3c2=O)cc1
IC50 [2]: 7.68 µM

C#CCSc1nc2ccccc2c(=O)n1-c1ccc(OC)cc1
IC50 [2]: 6.54 µM

COc1ccc(-n2c(SCc3cc(-c4ccc(OC)c(OC)c4)no3)nc3ccccc3c2=O)cc1
IC50 [2]: 6.53 µM

O=c1c2ccccc2nc(SCc2cn(-c3ccc(Cl)cc3)nn2)n1-c1ccc(Cl)cc1
IC50 [2]: 6.32 µM

O=c1c2ccccc2nc(SCc2cc(-c3ccc(Cl)cc3)no2)n1-c1ccc(Br)cc1
IC50 [2]: 9.14 µM

O=c1c2ccccc2nc(SCc2cn(-c3ccc(Br)cc3)nn2)n1-c1ccc(Cl)cc1
IC50 [2]: 3.67 µM

O=c1c2ccccc2nc(SCc2cn(-c3ccccc3)nn2)n1-c1ccc(Cl)cc1
IC50 [2]: 8.24 µM

COc1ccc(-c2cc(CSc3nc4ccccc4c(=O)n3-c3ccc(Br)cc3)on2)cc1
IC50 [2]: 5.34 µM | inhibition in vivo at 5 mg/kg (Rattus norvegicus [3]): 192% | inhibition in vivo at 5 mg/kg (Rattus norvegicus [4]): 50% | inhibition in vivo at 5 mg/kg (Rattus norvegicus [5]): 61.1%

O=c1c2ccccc2nc(SCc2cc(-c3ccc(Cl)cc3)no2)n1-c1ccccc1
IC50 [2]: 8.79 µM

O=c1c2ccccc2nc(SCc2cc(-c3ccc(Cl)cc3)no2)n1-c1ccc(Cl)cc1
IC50 [2]: 5.61 µM

O=c1c2ccccc2nc(SCc2cn(-c3ccc(Br)cc3)nn2)n1-c1ccccc1
IC50 [2]: 5.89 µM

O=C(O)c1ccc(-n2cc(CSc3nc4ccccc4c(=O)n3-c3ccccc3)nn2)cc1
IC50 [2]: 5.89 µM

O=c1c2ccccc2nc(SCc2cn(-c3ccc(Br)cc3)nn2)n1-c1ccc(Br)cc1
IC50 [2]: 3.89 µM | Activity (THP-1 [6]): Non-Toxic | IC50 [7]: 3.98 µM | inhibition in vivo at 5 mg/kg (Rattus norvegicus [3]): 133% | IC50 (THP-1 [8]): 99.4 µM | Activity (Rattus norvegicus [9]): Toxic | inhibition in vivo at 5 mg/kg (Rattus norvegicus [4]): 50% | inhibition in vivo at 5 mg/kg (Rattus norvegicus [5]): 41.7% | Activity (Rattus norvegicus [10]): Toxic

O=C(O)c1ccc(-n2cc(CSc3nc4ccccc4c(=O)n3-c3ccc(Br)cc3)nn2)cc1
IC50 [2]: 8.67 µM

O=C(O)Cc1ccccc1Nc1c(Cl)cccc1Cl [DICLOFENAC]
Activity (THP-1 [6]): Non-Toxic | inhibition in vivo at 5 mg/kg (Rattus norvegicus [3]): 208% | IC50 (THP-1 [8]): 4.86 µM | inhibition in vivo at 5 mg/kg (Rattus norvegicus [5]): 66.7%

CC(c1cc2ccccc2s1)N(O)C(N)=O (stereo unspecified) [ZILEUTON]
IC50 [7]: 2.41 µM

Cc1ccc(Cl)c(Nc2ccccc2C(=O)O)c1Cl [MECLOFENAMATE SODIUM]
IC50 [7]: 5.64 µM

Cc1ccc(-c2cc(C(F)(F)F)nn2-c2ccc(S(N)(=O)=O)cc2)cc1 [CELECOXIB]
inhibition in vivo at 5 mg/kg (Rattus norvegicus [5]): 33.3% | Activity (Rattus norvegicus [11]): Non-Toxic

O=c1c2ccccc2nc(SCc2cn(-c3ccccc3)nn2)n1-c1ccc(Br)cc1
IC50 [2]: 4.78 µM

O=c1c2ccccc2nc(SCc2cn(-c3ccc(Cl)cc3)nn2)n1-c1ccc(Br)cc1
IC50 [2]: 5.27 µM | Activity (THP-1 [6]): Non-Toxic | Activity (Rattus norvegicus [12]): Non-Toxic | Activity (Rattus norvegicus [13]): Non-Toxic | IC50 [7]: 5.21 µM | inhibition in vivo at 5 mg/kg (Rattus norvegicus [3]): 225% | IC50 (THP-1 [8]): 5.63 µM | Activity (Rattus norvegicus [9]): Non-Toxic | Activity (Rattus norvegicus [14]): Toxic | inhibition in vivo at 5 mg/kg (Rattus norvegicus [4]): 50% | inhibition in vivo at 5 mg/kg (Rattus norvegicus [5]): 70.8% | Activity (Rattus norvegicus [10]): Toxic

COc1ccc(-c2cc(CSc3nc4ccccc4c(=O)n3-c3ccccc3)on2)cc1OC
IC50 [2]: 9.23 µM

O=C(O)c1ccc(-n2cc(CSc3nc4ccccc4c(=O)n3-c3ccc(Cl)cc3)nn2)cc1
IC50 [2]: 2.97 µM | Activity (THP-1 [6]): Non-Toxic | Activity (Rattus norvegicus [12]): Non-Toxic | Activity (Rattus norvegicus [13]): Non-Toxic | IC50 [7]: 7.62 µM | inhibition in vivo at 5 mg/kg (Rattus norvegicus [3]): 225% | IC50 (THP-1 [8]): 0.13 µM | Activity (Rattus norvegicus [9]): Non-Toxic | Activity (Rattus norvegicus [14]): Toxic | inhibition in vivo at 5 mg/kg (Rattus norvegicus [4]): 50% | inhibition in vivo at 5 mg/kg (Rattus norvegicus [5]): 70.8% | Activity (Rattus norvegicus [10]): Toxic

COc1ccc(-n2c(SCc3cn(-c4ccc(Br)cc4)nn3)nc3ccccc3c2=O)cc1
IC50 [2]: 7.63 µM

COc1ccc(-c2cc(CSc3nc4ccccc4c(=O)n3-c3ccccc3)on2)cc1
IC50 [2]: 4.67 µM | inhibition in vivo at 5 mg/kg (Rattus norvegicus [3]): 192% | inhibition in vivo at 5 mg/kg (Rattus norvegicus [4]): 50% | inhibition in vivo at 5 mg/kg (Rattus norvegicus [5]): 61.1%

COc1ccc(-c2cc(CSc3nc4ccccc4c(=O)n3-c3ccc(Br)cc3)on2)cc1OC
IC50 [2]: 4.57 µM | inhibition in vivo at 5 mg/kg (Rattus norvegicus [3]): 167% | inhibition in vivo at 5 mg/kg (Rattus norvegicus [4]): 50% | inhibition in vivo at 5 mg/kg (Rattus norvegicus [5]): 51.4%

O=c1c2ccccc2nc(SCc2cn(-c3ccc(Cl)cc3)nn2)n1-c1ccccc1
IC50 [2]: 4.36 µM | Activity (THP-1 [6]): Non-Toxic | IC50 [7]: 4.33 µM | inhibition in vivo at 5 mg/kg (Rattus norvegicus [3]): 225% | IC50 (THP-1 [8]): 1.24 µM | inhibition in vivo at 5 mg/kg (Rattus norvegicus [4]): 50% | inhibition in vivo at 5 mg/kg (Rattus norvegicus [5]): 70.8% | Activity (Rattus norvegicus [10]): Non-Toxic | Activity (Rattus norvegicus [11]): Non-Toxic

COc1ccc(-n2c(SCc3cn(-c4ccccc4)nn3)nc3ccccc3c2=O)cc1
IC50 [2]: 10.5 µM

COc1ccc(-n2c(SCc3cn(-c4ccc(C(=O)O)cc4)nn3)nc3ccccc3c2=O)cc1
IC50 [2]: 11.9 µM

C#CCSc1nc2ccccc2c(=O)n1-c1ccc(Br)cc1
IC50 [2]: 3.87 µM | Activity (THP-1 [6]): Non-Toxic | IC50 [7]: 6.21 µM | inhibition in vivo at 5 mg/kg (Rattus norvegicus [3]): 225% | IC50 (THP-1 [8]): 4.77 µM | inhibition in vivo at 5 mg/kg (Rattus norvegicus [4]): 50% | inhibition in vivo at 5 mg/kg (Rattus norvegicus [5]): 70.8% | Activity (Rattus norvegicus [10]): Non-Toxic | Activity (Rattus norvegicus [11]): Non-Toxic

COc1ccc(-n2c(SCc3cn(-c4ccc(Cl)cc4)nn3)nc3ccccc3c2=O)cc1
IC50 [2]: 4.22 µM

COc1ccc(-c2cc(CSc3nc4ccccc4c(=O)n3-c3ccc(Cl)cc3)on2)cc1
IC50 [2]: 11.2 µM

C#CCSc1nc2ccccc2c(=O)n1-c1ccc(Cl)cc1
IC50 [2]: 4.26 µM

C#CCSc1nc2ccccc2c(=O)n1-c1ccccc1
IC50 [2]: 3.78 µM
